Laboratory results from US5990142A, “Benzopyran derivatives having leukotriene-antagonistic action” (Laboratorios Menarini S.A., priority 1996, dated 1999).

Each compound was assayed against T1, LTD4 receptor (Cavia porcellus, UniProt Q2NNR5) (assay: [^3 H]-LTD4 Receptor Binding Inhibition Test in Guinea-pig Lung Membranes). Conditions: 0.5 nM [^3 H]-LTD4, 30 min at 25° C., pH 7.4, Cheng-Prusoff.
T1 construct: Guinea pig lung membranes, containing the LTD4 receptors, are purified; from tissue; host or cells: guinea-pig lung membranes
T1 sequence (Q2NNR5 1-340): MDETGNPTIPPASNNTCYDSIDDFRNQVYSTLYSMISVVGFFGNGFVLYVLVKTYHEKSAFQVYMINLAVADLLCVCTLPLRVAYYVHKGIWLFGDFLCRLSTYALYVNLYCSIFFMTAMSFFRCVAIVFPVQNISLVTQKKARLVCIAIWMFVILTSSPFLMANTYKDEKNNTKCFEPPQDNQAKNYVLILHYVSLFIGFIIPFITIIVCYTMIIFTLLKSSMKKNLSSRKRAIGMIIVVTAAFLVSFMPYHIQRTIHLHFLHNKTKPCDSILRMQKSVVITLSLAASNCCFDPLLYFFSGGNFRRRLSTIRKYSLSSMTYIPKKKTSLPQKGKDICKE
Protocol: The antagonistic activity on LTD4 of the compounds of the present invention is determined by means of an inhibition test of the [^3 H]-LTD4 receptor binding in guinea-pig lung membranes.
[^3 H]-LTD4 Receptor Binding Inhibition Test in Guinea-pig Lung Membranes
Guinea pig lung membranes, containing the LTD4 receptors, are purified following the method described by Mong and col. (Mong et al., Prostaglandins, 1984, 28. 805). These purified membranes (150 μg/ml) are added to an incubation mixture containing 10 mM of PIPES buffer (piperazine-N,N'-bis(2-ethanesulfonic acid) (pH 7.4), 10 mM CaCl2, 10 mM MgCl2, 2 mM cysteine, 2 mM glycine, 0.5 nM [^3 H]-LTD4 (4700-6400 GBq/mmol) and different concentrations of the product under test in a final volume of 310 μl. The reaction mixture is incubated for 30 minutes at 25° C.
The radioligand bound to the membranes is separated from the free one by dilution with 4 ml washing buffer (10 mM Tris-HCl (pH 7.4) and 100 mM NaCl) at 0° C. and filtration with Whatman GF/B filters, by means of a Brandel Cell Harvester. The filters are washed 4 times with a total volume of 16 ml of washing buffer at 0° C. The radioactivity present in the filters is determined by liquid scintillation.
The specific binding is defined as the difference between the total binding of [^3 H]-LTD4 and the non-specific binding determined in the presence of 1 μM LTD4. The data obtained in the competition tests are analyzed by a computational program, which determines the inhibition constant of each compound (Ki) by means of the Cheng-Prusoff equation (Cheng et al., Biochem. Pharmacol., 1973, 22, 3094).
wherein IC50 is the concentration of compound which displaces a 50% of the bound radioligand, [L] is the concentration of [^3 H]LTD4 free in the test and Kd is the dissociation constant of the LTD4 obtained in an independent way by means of Scatchard analysis.
Work on `O=C(Nc1cccc2c(=O)cc(C(=O)O)oc12)c1ccc2c(c1)CC(CSCc1ccccc1)O2` (centres unmarked) [Example 10, 8-(2-Benzylthiomethyl-2,3-dihydrobenzofuran-5-carboxamido)-4-oxo-4H-1-benzopyran-2-carboxylic acid] yielded a Ki of 9 ± 0.8 nM. Work on `O=C(Nc1cccc2c(=O)cc(C(=O)O)oc12)c1cc(Cl)c2c(c1)CC(CCCc1ccccc1)O2` (centres unmarked) [Example 13, 8-[7-chloro-2-(3-phenylpropyl)-2,3-dihydrobenzofuran-5-carboxamido]-4-oxo-4H-1-benzopyran-2-carboxylic acid] yielded a Ki of 9.3 ± 3 nM. `O=C(Nc1cccc2c(=O)cc(-c3nnn[nH]3)oc12)c1ccc2c(c1)CCC(CCCc1ccccc1)O2` (centres unmarked) [Example 4, N-[4-Oxo-2-(1H-5-tetrazolyl)-4H-1-benzopyran-8-yl]-2-(3-phenylpropyl)chromane-6-carboxamide] gave a Ki of 2.3 ± 0.2 nM. `O=C(O)c1cc(=O)c2cccc(/C=C/c3ccc4c(c3)CC(COCc3ccc(F)cc3)O4)c2o1` (centres unmarked) [Example 25, 8-[(E)-2-[2-(4'-Fluorobenzyloxymethyl)-2,3-dihydrobenzofuran-5-yl]ethen-1-yl]-4-oxo-4H-1-benzopyran-2-carboxylic acid] was tested, and the Ki was 1.25 ± 0.3 nM. For `O=C(Nc1cccc2c(=O)cc(C(=O)O)oc12)c1ccc2c(c1)CCC(CCCc1ccccc1)O2` (centres unmarked) [Example 3, 8-[2-(3-Phenylpropyl)chromane-6-carboxamido]-4-oxo-4H-1-benzopyran-2-carboxylic acid], the Ki was 5.6 ± 0.5 nM. `O=c1cc(-c2nnn[nH]2)oc2c(/C=C/c3ccc(OCCCCc4ccccc4)cc3)cccc12` [Example 21, 8-[(E)-2-[4-(4-Phenylbutoxy)phenyl]ethen-1-yl]-4-oxo-2-(5-1H-tetrazolyl]-4H-1-benzopyran] was tested, and the Ki was 0.5 ± 0.2 nM. For `O=C(O)c1cc(=O)c2cccc(NS(=O)(=O)c3ccc(OCCCCc4ccccc4)cc3)c2o1` [Example 19, 8-[[4-(4-Phenylbutoxy)phenyl]sulfonylamino]-4-oxo-4H-1-benzopyran-2-carboxylic acid], the Ki was 6 ± 1 nM. Work on `O=C(O)c1cc(=O)c2cccc(/C=C/c3ccc(OCCCCc4ccc(F)cc4)cc3)c2o1` [Example 22, 8-[(E)-2-[4-[4-(4-Fluorophenyl)butoxy]phenyl]-ethen-1-yl]-4-oxo-4H-1-benzopyran-2-carboxylic acid] yielded a Ki of 6 ± 3 nM. `O=C(Nc1cccc2c(=O)cc(C(=O)O)oc12)c1ccc2c(c1)CC(COCc1ccccc1)O2` (centres unmarked) [Example 6, 8-(2-Benzyloxymethyl-2,3-dihydrobenzofuran-5-carboxamido)-4-oxo-4H-1-benzopyran-2-carboxylic acid] was tested, and the Ki was 6 ± 2.1 nM. Work on `O=C(O)c1cc(=O)c2cccc(/C=C/c3ccc(OCCCCc4ccccc4)cc3F)c2o1` [Example 24, 8-[(E)-2-[4-(4-Phenylbutoxy)-2-fluorophenyl]ethen-1-yl]-4-oxo-4H-1-benzopyran-2-carboxylic acid] yielded a Ki of 22.3 ± 0.1 nM. In the case of `O=C(O)c1cc(=O)c2cccc(NC(=O)c3ccc4c(c3Cl)CC(CCCc3ccccc3)O4)c2o1` (centres unmarked) [Example 15, 8-[4-Chloro-2-(3-phenylpropyl)-2,3-dihydrobenzofuran-5-carboxamido]-4-oxo-4H-1-benzopyran-2-carboxylic acid], the Ki is reported as 102 ± 48 nM. `O=C(O)c1cc(=O)c2cccc(NC(=O)c3cc4c(cc3Cl)OC(CCCc3ccccc3)C4)c2o1` (centres unmarked) [Example 16, 8-[6-Chloro-2-(3-phenylpropyl)-2,3-dihydrobenzofuran-5-carboxamido]-4-oxo-4H-1-benzopyran-2-carboxylic acid] gave a Ki of 169 ± 24 nM. `O=C(Nc1cc(F)cc2c(=O)cc(C(=O)O)oc12)c1ccc2c(c1)CC(CCCc1ccccc1)O2` (centres unmarked) [Example 14, 8-[2-(3-Phenylpropyl)-2,3-dihydrobenzofuran-5-carboxamido]-6-fluoro-4-oxo-4H-1-benzopyran-2-carboxylic acid] was tested, and the Ki was 4.2 ± 1.1 nM. `O=C(Nc1cccc2c(=O)cc(-c3nnn[nH]3)oc12)c1ccc2c(c1)CC(CCCc1ccccc1)O2` (centres unmarked) [Example 9, N-[4-Oxo-2-(1H-5-tetrazolyl)-4H-1-benzopyran-8-yl]-2-(3-phenylpropyl)-2,3-dihydrobenzofuran-5-carboxamide] gave a Ki of 1.1 ± 0.2 nM. `O=c1cc(-c2nnn[nH]2)oc2c(/C=C/c3ccc(OCCCCc4ccc(F)cc4)cc3)cccc12` [Example 23, 8-[(E)-2-[4-[4-(4-Fluorophenyl)butoxy]phenyl]ethen-1-yl]-4-oxo-2-(5-1H-tetrazolyl)-4H-1-benzopyran] was tested, and the Ki was 0.39 ± 0.1 nM. `O=C(Nc1cccc2c(=O)cc(C(=O)O)oc12)c1ccc2c(c1)CC(COCc1ccc(F)cc1)O2` (centres unmarked) [Example 11, 8-[2-(4'-Fluorobenzyloxymethyl)-2,3-dihydrobenzofuran-5-carboxamido]-4-oxo-4H-1-benzopyran-2-carboxylic acid] showed a Ki of 1.9 ± 0.04 nM. `O=c1cc(-c2nnn[nH]2)oc2c(/C=C/c3ccc4c(c3)CC(COCc3ccc(F)cc3)O4)cccc12` (centres unmarked) [Example 26, 8-[(E)-2-[2-(4'-fluorobenzyloxymethyl)-2,3-dihydrobenzofuran-5-yl]ethen-1-yl]-4-oxo-2-(5-1H-tetrazolyl)-4H-1-benzopyran] gave a Ki of 0.46 ± 0.1 nM. `O=C(Nc1cccc2c(=O)cc(-c3nnn[nH]3)oc12)c1ccc2c(c1)CC(COCc1ccccc1)O2` (centres unmarked) [Example 7, N-[4-Oxo-2-(1H-5-tetrazolyl)-4H-1-benzopyran-8-yl]-2-benzyloxymethyl-2,3-dihydrobenzofuran-5-carboxamide] was tested, and the Ki was 1.88 ± 0.2 nM. `O=C(Nc1cccc2c(=O)cc(-c3nnn[nH]3)oc12)c1ccc2c(c1)CCC(COCc1ccccc1)O2` (centres unmarked) [Example 2, N-[4-Oxo-2-(1H-5-tetrazolyl)-4H-1-benzopyran-8-yl]-2-(benzyloxymethyl)chromane-6-carboxamide] was tested, and the Ki was 12 ± 4 nM. In the case of `O=C(O)c1cc(=O)c2cccc(OCc3ccc(OCCCCc4ccccc4)cc3)c2o1` [Example 18, 8-[[4-(4-phenylbutoxy)phenyl]methyloxy]-4-oxo-4H-1-benzopyran-2-carboxylic acid], the Ki is reported as 174 ± 43 nM. `O=C(Nc1cccc2c(=O)cc(-c3nnn[nH]3)oc12)c1ccc2c(c1)CC(COCc1ccc(F)cc1)O2` (centres unmarked) [Example 12, N-[4-Oxo-2-(1H-5-tetrazolyl)-4H-1-benzopyran-8-yl]-2-(4'-fluorobenzyloxymethyl)-2,3-dihydrobenzofuran-5-carboxamide] was tested, and the Ki was 0.39 ± 0.1 nM. In the case of `O=C(O)c1cc(=O)c2cccc(/C=C/c3ccc(OCCCCc4ccccc4)cc3)c2o1` [Example 20, 4-oxo-8-[(E)-2-[4-(4-phenylbutoxy)phenyl]ethen-1-yl]-4H-1-benzopyran-2-carboxylic acid], the Ki is reported as 6.2 ± 1.3 nM. With `O=C(Nc1cccc2c(=O)cc(C(=O)O)oc12)c1ccc2c(c1)CC(CCCc1ccccc1)O2` (centres unmarked) [Example 8, 8-[2-(3-Phenylpropyl)-2,3-dihydrobenzofuran-5-carboxamido]-4-oxo-4H-1-benzopyran-2-carboxylic acid] the Ki was 1.73 ± 0.2 nM. `O=C(Nc1cccc2c(=O)cc(C(=O)O)oc12)c1ccc2oc(COCc3ccccc3)cc2c1` [Example 5, 8-[2-(Benzyloxymethyl)benzofuran-5-carboxamido]-4-oxo-4H-1-benzopyran-2-carboxylic acid] was tested, and the Ki was 24 ± 3 nM. Work on `Cc1cn(CCCCc2ccccc2)c2ccc(C(=O)Nc3cccc4c(=O)cc(-c5nnn[nH]5)oc34)cc12` [Example 17, N-[4-Oxo-2-(1H-5-tetrazolyl)-4H-1-benzopyran-8-yl]-1-(4-phenylbutyl)-3-methylindole-5-carboxamide] yielded a Ki of 1200 ± 440 nM. `O=C(Nc1cccc2c(=O)cc(C(=O)O)oc12)c1ccc2c(c1)CCC(COCc1ccccc1)O2` (centres unmarked) [Example 1, 8-[2-(Benzyloxymethyl)chromane-6-carboxamido]-4-oxo-4H-1-benzopyran-2-carboxylic acid] showed a Ki of 145 ± 34 nM.
